Experimental findings from patent publication US8404665B2, “In vivo use of glutathione S-transferase activated nitric oxide donors” (University of Utah Research Foundation, priority 2002, dated 2013) are described below.

The structures appear in SMILES notation.

Series [1] can be described thus: Reactivity of JS-K with GSH (HPLC-MS, pseudo-first order kinetics). Type of series: physicochemical. The conditions noted are these: 37° C. As for the experimental part: Chromatography and Mass Spectrometry. High Performance Liquid Chromatography (HPLC) separations were carried out with a Phenomenex Luna 5 u C18(2) column (Torrance, Calif.) using a gradient of acetonitrile:water (each containing 0.1% formic acid) at a flow rate of 1 ml/min (% acetonitrile: 25% for 0-5 min followed by a linear program to 70% at 15 min).
HPLC-Mass Spectrometry (MS) studies were performed on an Agilent Capillary Series 1100 LC/MSD Ion Trap mass spectrometer with electrospray ionization in the positive ion mode (CITY, STATE). Separations were effected as above, except that the flow rate was 15 ul/min and the gradient was 10% acetonitrile for 0-5 min followed by a linear program to 70% at 15 min.
The diazeniumdiolate ion appears to resemble chloride as a leaving group in SNAr reactions (Saavedra, J. E. et al. (2001) J. Org. Chem. 66: 3090-3098). Since 1-chloro-2,4-dinitrobenzene is believed to react with GSH, it was anticipated that JS-K would be similarly converted to DNP-SG. This was indicated by HPLC-MS where there appeared to be an 85% conversion of JS-K to DNP-SG within a 30-min incubation period at 37° C. in pH 7.4 phosphate buffer. Similar results appeared in a RPMI-1640 cell culture medium. Pseudo-first order kinetic plots for the reaction of GSH with JS-K in 0.1 M phosphate buffer (pH 7.4) were obtained with GSH (1-5 mM) in large excess of the substrate. Excellent first-order behavior was observed over several half-lives, and measured first-order rate constants appeared to show a linear dependence on [GSH]. The slope and y-intercept of the line yielded values for the second-order [k2=(1.02±0.04) M^−1 s^−1] and first order [k1=(4±12)×10^−5 s^−1] rate constants for the reactions of JS-K with GSH and water, respectively, at 37° C. in 0.1 M phosphate buffer, pH 7.4. The ultraviolet spectral changes accompanying the reaction in a second cell culture medium (Dulbecco's Modified Eagle's Medium) appeared to confirm the above stated kinetic rate constants.

The next series addresses T1, hGSTA1-1 (Homo sapiens, UniProt P08263).
T1 sequence (P08263 1-222): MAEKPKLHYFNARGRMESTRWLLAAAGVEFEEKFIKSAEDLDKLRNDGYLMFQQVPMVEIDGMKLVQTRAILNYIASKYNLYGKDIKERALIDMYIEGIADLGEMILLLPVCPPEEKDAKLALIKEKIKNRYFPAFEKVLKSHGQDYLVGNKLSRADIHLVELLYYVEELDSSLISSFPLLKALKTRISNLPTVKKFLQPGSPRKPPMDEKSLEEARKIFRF
Put plainly: GST-catalysed GSH conjugation of JS-K and NO release. Type of series: biochemical. The protocol: (§1) Determination of Specific Activity of Human GSTs Toward JS-K. Purified preparations of recombinant hGSTA1-1, hGSTM1-1 and hGSTP1-1 were obtained from Panvera (Madison, Wis.). The activity of human GST toward CDNB was determined, as described by Habig et al. (Habig, W. H. et al. (1974) J. Biol. Chem. 249: 7130-7139), prior to activity measurements with JS-K to ensure that the enzyme preparations were catalytically active. For activity measurement toward JS-K, the reaction mixture in a final volume of 1 ml contained 100 mM potassium phosphate buffer (pH 6.5), 1 mM GSH, 0.045 mM JS-K, and an appropriate amount of human GST isoenzyme protein. The reaction was started by the addition of JS-K, and the rate of reaction was monitored by measuring decrease in absorbance of JS-K at 298 nm due to its utilization during reaction with GSH. The specific activity toward JS-K was calculated using an extinction coefficient of 18 mM^−1 cm^−1 at 298 nm.
(§2) Measurement of NO Release. Chemiluminescence detection and quantification of NO evolving from the reactions of JS-K were conducted using an NO-specific Thermal Energy Analyzer (Model 502A, Thermedics, Analytical Instrument Division, Waltham, Mass.) essentially as previously described (Keefer, L. K. et al. (1996) Methods Enzymol. 268: 281-293). Briefly, pH 7.4 phosphate buffer containing 1 mM GSH was sparged with inert gas until a steady detector response was established. Where indicated, GSTs were added to a final concentration of 1.67 ug of enzyme/ml. The NO release profile was followed at 37° C. for 45 min after injecting JS-K at a final concentration of 133 nM to start the reaction. The resulting curve was integrated to quantify the amount of NO released/mole of compound.

The next series has as its target T2, hGSTM1-1 (Homo sapiens, UniProt P09488).
T2 construct: purchased Panvera (Madison, Wis.)
T2 sequence (P09488 2-218): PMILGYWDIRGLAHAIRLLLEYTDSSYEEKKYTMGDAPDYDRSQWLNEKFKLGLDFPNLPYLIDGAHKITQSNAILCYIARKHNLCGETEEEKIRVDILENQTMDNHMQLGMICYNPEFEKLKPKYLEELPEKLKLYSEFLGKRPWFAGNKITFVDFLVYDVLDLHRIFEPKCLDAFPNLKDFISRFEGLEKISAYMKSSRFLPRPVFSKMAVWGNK
Described as above. The class given is biochemical. The protocol:
as §1, §2

The next series addresses T3, hGSTP1-1 (Homo sapiens, UniProt P09211).
T3 construct: purchased Panvera (Madison, Wis.)
The series is described as above. The class given is biochemical. The protocol:
as §1, §2

The test system of the next series is rabbit thoracic aorta. Put plainly: Rabbit aortic rings bioassay of NO activity (vasorelaxation). An excerpt:
Preparation of Rabbit Aortic Rings for Bioassay of NO Activity. The preparation of rabbit aortic rings was similar to that described previously (Jia L and Furchgott R F (1993) J Pharmnacol Exp Ther 267: 371-378.), and the animal protocol was approved by the Institutional Animal Care and Use Committee. Briefly, a male New Zealand rabbit was anesthetized by an intravenous injection of sodium pentobarbital into a marginal ear vein. The descending thoracic aorta was quickly removed. The aortic rings (2 mm in length) were prepared and mounted in 20 ml of Krebs' solution (bubbled with 95% O2/5% CO2, 37° C.) in organ chambers. […] Rings were allowed to equilibrate for at least 90 min before experiments were initiated. Basal tension was maintained at approximately 3 g. To allow studies on relaxation, each ring was precontracted submaximally by addition of 50-100 nM phenylephine to the bathing solution. When the contraction had reached a steady state, JS-K was added successively to the bathing solution until the maximal relaxation was obtained. Hb and ODQ were also added to the bathing solution to investigate the mechanisms of action of JS-K.
The ability of JS-K to function as a NO donor was examined in the rabbit thoracic aorta model. […]

T3 sequence (P09211 2-210 limits assumed): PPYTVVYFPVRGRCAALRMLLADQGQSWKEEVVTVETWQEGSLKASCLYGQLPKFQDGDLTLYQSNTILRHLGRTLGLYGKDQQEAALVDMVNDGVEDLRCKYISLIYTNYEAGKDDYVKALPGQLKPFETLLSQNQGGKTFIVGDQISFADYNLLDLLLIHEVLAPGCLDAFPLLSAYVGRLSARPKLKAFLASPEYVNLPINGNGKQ

For the compound `CCOC(=O)N1CCN(/[N+]([O-])=N/Oc2ccc([N+](=O)[O-])cc2[N+](=O)[O-])CC1` [JS-K, O^2-(2,4-dinitrophenyl) 1-[(4-ethoxycarbonyl)piperazin-1-yl]diazen-1-ium-1,2-diolate], in series [1] (0.1 M phosphate buffer, pH 7.4), the “first order rate constant k1, reaction with water (y-intercept)” value is “(4±12)×10^−5 s^−1” and the “second-order rate constant k2, reaction with GSH” value was 1.02 ± 0.04 M⁻¹ s⁻¹. The “conversion of JS-K to DNP-SG” value in series [1] (within 30-min incubation, pH 7.4 phosphate buffer) is 85%. In addition, at hGSTA1-1, the “catalysis of JS-K conjugation” value is “much superior to hGSTP1-1”. Also, at hGSTM1-1, the “catalysis of JS-K conjugation” value is “much superior to hGSTP1-1”. Besides, the “catalysis of NO release from JS-K with GSH” value at hGSTP1-1 (hGSTP1-1) was “only weakly”. For the same compound, the “activity for GSH conjugation of JS-K” value at hGSTP1-1 (recombinant hGSTP1-1) is recorded as “much less active than hGSTA1-1 or hGSTM1-1”. Further, the “effect of JS-K exposure on enzyme's ability to catalyze CDNB's conjugation with GSH” value on hGSTP1-1 (up to 80 uM JS-K) is “unfettered ability”. Also, the reversibility of vasoactivity result in the series on rabbit thoracic aorta (Hb and ODQ added) was “reversible in the presence of a NO scavenger and a specific inhibitor of the NO-sGC-cGMP pathway”. Besides, the “concentration at which vasorelaxation reached a maximum” value in the series with rabbit thoracic aorta (rings precontracted with phenylephine) is listed as 100 nM.
